Measurements from ChEMBL document CHEMBL5316327, “Design and Synthesis of Orally Active Quinolyl Pyrazinamides as Sigma 2 Receptor Ligands for the Treatment of Pancreatic Cancer” (J Med Chem, 2023).
Calls of active or inactive are those of the source. The rule behind the calls is not given here.

Tests used:
HCT-116 [1] = assay: Induction of cell cycle arrest in human HCT-116 cells assessed as accumulation of cells in G2/M phase at […] measured after 24 hrs by propidium iodide staining-based flow cytometric analysis (reference value: 10%); type: functional; settings: dose 2.5 µM
MIA PaCa-2 [2] = assay: Induction of cell cycle arrest in human MIA PaCa-2 cells assessed as accumulation of cells in G0/G1 phase at 10 uM measured after 24 hrs by propidium iodide staining-based flow cytometric analysis (reference value: 53%); type: functional
[3] = Metabolic stability in mouse liver microsomes assessed as half life at 10 uM measured upto 60 mins in presence of NADPH by LC-MS/MS analysis; type: ADME, Microsome; settings: 1 h
cells = settings: Mus musculus, KPC2, 72 h
HCT-116 [4] = assay: Induction of cell cycle arrest in human HCT-116 cells assessed as accumulation of cells in G0/G1 phase at 5 uM measured after 24 hrs by propidium iodide staining-based flow cytometric analysis (reference value: 43%); type: functional
MIA PaCa-2 [5] = assay: Additive ferroptosis activity in human MIA-PaCa-2 cells at upto 1 uM measured after 7 days in presence of erastin by crystal violet staining based analysis; type: functional, cell-based; settings: time 7.0 day
MIA PaCa-2 [6] = assay: Synergistic cytotoxicity in human MIA PaCa-2 cells at upto 1 uM measured after 7 days in presence of SC144 by crystal violet staining based analysis; type: functional, cell-based; settings: time 7.0 day
HCT-116 [7] = assay: Induction of cell cycle arrest in human HCT-116 cells assessed as accumulation of cells in G2/M phase at 5 uM measured after 24 hrs by propidium iodide staining-based flow cytometric analysis (reference value: 10%); type: functional
MIA PaCa-2 [8] = assay: Induction of cell cycle arrest in human MIA PaCa-2 cells assessed as accumulation of cells in S phase at […] measured after 24 hrs by propidium iodide staining-based flow cytometric analysis (reference value: 31%); type: functional; settings: dose 2.5 µM
[9] = AUC (0 to infinity) in CD-1 mouse plasma at 20 mg/kg, po; type: ADME, organism-based; parameters: dose 20 mg/kg, route po
[10] = Volume of distribution at steady state in CD-1 mouse plasma at 10 mg/kg, iv; type: ADME, organism-based; settings: read-out: Vdss
MIA PaCa-2 [11] = assay: Induction of apoptosis in human MIA PaCa-2 cells assessed as necrotic cells at 1.0 uM measured after 48 hrs by Annexin V-Alexa Fluor 488/propidium iodide staining based flow cytometry (reference value: 7.03%); type: functional
HCT-116 [12] = assay: Induction of cell cycle arrest in human HCT-116 cells assessed as accumulation of cells in S phase at […] measured after 24 hrs by propidium iodide staining-based flow cytometric analysis (reference value: 47%); type: functional; settings: dose 2.5 µM
[13] = Cmax in CD-1 mouse plasma at 20 mg/kg, po; type: ADME, organism-based; parameters: dose 20 mg/kg, route po
MIA PaCa-2 [14] = assay: Induction of cell cycle arrest in human MIA PaCa-2 cells assessed as accumulation of cells in G2/M phase at […] measured after 24 hrs by propidium iodide staining-based flow cytometric analysis (reference value: 16%); type: functional; settings: dose 2.5 µM
HCT-116 [15] = assay: Synergistic cytotoxicity against human HCT-116 cells at upto 1 uM measured after 6 days in presence of gold acetate by crystal violet staining based analysis; type: functional, cell-based; settings: time 6.0 day
MIA PaCa-2 [16] = assay: Synergistic cytotoxicity against human MIA PaCa-2 cells at upto 1 uM measured after 7 days in presence of ammonium tetrathiomolybdate by crystal violet staining based analysis; type: functional, cell-based; settings: time 7.0 day
MIA PaCa-2 [17] = assay: Additive ferroptosis activity in human MIA-PaCa-2 cells at upto 1 uM measured after 7 days in presence of FIN56 by crystal violet staining based analysis; type: functional, cell-based; settings: time 7.0 day
HCT-116 [18] = assay: Induction of cell cycle arrest in human HCT-116 cells assessed as accumulation of cells in S phase at 5 uM measured after 24 hrs by propidium iodide staining-based flow cytometric analysis (reference value: 47%); type: functional
PANC-1 = assay: Induction of autophagy in human PANC-1 cells assessed as upregulation of LC-3 level at 1 to 10 uM measured after 24 hrs; type: functional, cell-based; settings: dose 1-10 µM
HCT-116 [19] = assay: Induction of apoptosis in human HCT-116 cells assessed as necrotic cells at […] measured after 48 hrs by Annexin V-Alexa Fluor 488/propidium iodide staining based flow cytometry (reference value: 9.06%); type: functional; settings: dose 2.5 µM
HCT-116 [20] = assay: Induction of apoptosis in human HCT-116 cells assessed as late apoptotic cells at 5.0 uM measured after 48 hrs by Annexin V-Alexa Fluor 488/propidium iodide staining based flow cytometry (reference value: 8.48%); type: functional
HCT-116 [21] = assay: Induction of apoptosis in human HCT-116 cells assessed as viable cells at 10.0 uM measured after 48 hrs by Annexin V-Alexa Fluor 488/propidium iodide staining based flow cytometry (reference value: 79.69%); type: functional; settings: read-out: Activity
HCT-116 [22] = assay: Induction of apoptosis in human HCT-116 cells assessed as early apoptotic cells at 10.0 uM measured after 48 hrs by Annexin V-Alexa Fluor 488/propidium iodide staining based flow cytometry (reference value: 2.77%); type: functional
[23] = AUC (0 to time of last detectable concentration) in CD-1 mouse plasma at 20 mg/kg, po; type: ADME, organism-based; parameters: dose 20 mg/kg, route po
[24] = target: 5-hydroxytryptamine receptor 2A (Homo sapiens, UniProt P28223); assay: Binding affinity to 5-HT2A receptor (unknown origin) assessed as inhibition constant
Chain of 5-hydroxytryptamine receptor 2A (P28223 whole entry): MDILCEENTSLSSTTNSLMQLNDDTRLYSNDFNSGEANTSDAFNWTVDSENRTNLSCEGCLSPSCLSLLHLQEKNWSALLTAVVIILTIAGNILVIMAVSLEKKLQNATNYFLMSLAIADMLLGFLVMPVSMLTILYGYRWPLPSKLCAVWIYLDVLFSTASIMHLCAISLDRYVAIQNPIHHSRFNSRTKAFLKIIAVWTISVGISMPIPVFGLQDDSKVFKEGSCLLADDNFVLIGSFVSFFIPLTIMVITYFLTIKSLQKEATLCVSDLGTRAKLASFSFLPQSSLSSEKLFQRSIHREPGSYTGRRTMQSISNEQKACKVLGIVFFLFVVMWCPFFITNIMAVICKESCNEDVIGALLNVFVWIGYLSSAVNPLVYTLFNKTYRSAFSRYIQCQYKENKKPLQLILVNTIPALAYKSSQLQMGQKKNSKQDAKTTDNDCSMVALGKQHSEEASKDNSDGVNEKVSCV

[25] = Toxicity in C57BL/6 mouse assessed as effect on body weight at 30 mg/kg, po measured upto 32 days in presence of copper sulfate; type: organism-based; settings: in vivo, 768 h, time < 32 day
[26] = Oral bioavailability in CD-1 mouse plasma at 20 mg/kg; type: ADME, organism-based; settings: in vivo
[27] = Apparent oral clearance in CD-1 mouse plasma at 20 mg/kg, po; type: ADME, organism-based
MIA PaCa-2 [28] = assay: Synergistic cytotoxicity in human MIA PaCa-2 cells at upto 1 uM measured after 7 days in presence of cisplatin by crystal violet staining based analysis; type: functional, cell-based; settings: time 7.0 day
MIA PaCa-2 [29] = assay: Induction of apoptosis in human MIA PaCa-2 cells assessed as early apoptotic cells at […] measured after 48 hrs by Annexin V-Alexa Fluor 488/propidium iodide staining based flow cytometry (reference value: 4.11%); type: functional; settings: dose 2.5 µM
MIA PaCa-2 [30] = assay: Synergistic cytotoxicity against human MIA PaCa-2 cells at upto 1 uM measured after 7 days in presence of copper chloride by crystal violet staining based analysis; type: functional, cell-based; settings: time 7.0 day
HCT-116 [31] = assay: Induction of apoptosis in human HCT-116 cells assessed as necrotic cells at 10.0 uM measured after 48 hrs by Annexin V-Alexa Fluor 488/propidium iodide staining based flow cytometry (reference value: 9.06%); type: functional
HCT-116 [32] = assay: Induction of cell cycle arrest in human HCT-116 cells assessed as accumulation of cells in S phase at 10 uM measured after 24 hrs by propidium iodide staining-based flow cytometric analysis (reference value: 47%); type: functional
HCT-116 [33] = assay: Inhibition of colony formation in human HCT-116 cells at 0.04 to 30 uM pretreated with ammonium tetrathiomolybdate for 4 hrs followed by compound addition and measured after 6 days; type: functional, cell-based; settings: dose 0.04-30 µM, time 6.0 day
MIA PaCa-2 [34] = assay: Upregulation of GRP78 in human MIA PaCa-2 cells at 10 uM measured after 24 hrs by Western blot analysis; type: functional, cell-based
D(1A) dopamine receptor = D(1A) dopamine receptor (Homo sapiens, UniProt P21728); assay: Binding affinity to dopamine D1 receptor (unknown origin) assessed as inhibition constant
Chain of D(1A) dopamine receptor (P21728 whole entry): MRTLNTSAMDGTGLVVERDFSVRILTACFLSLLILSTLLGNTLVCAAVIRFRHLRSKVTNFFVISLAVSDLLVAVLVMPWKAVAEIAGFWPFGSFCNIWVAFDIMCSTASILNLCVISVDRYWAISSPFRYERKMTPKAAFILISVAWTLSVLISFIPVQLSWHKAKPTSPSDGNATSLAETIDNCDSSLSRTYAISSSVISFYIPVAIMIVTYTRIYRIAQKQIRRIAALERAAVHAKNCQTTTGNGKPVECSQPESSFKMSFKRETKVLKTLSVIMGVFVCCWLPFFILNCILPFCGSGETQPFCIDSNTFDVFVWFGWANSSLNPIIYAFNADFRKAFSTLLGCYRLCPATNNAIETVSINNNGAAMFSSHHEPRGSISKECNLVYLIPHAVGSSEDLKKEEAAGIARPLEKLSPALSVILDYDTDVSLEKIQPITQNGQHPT

[35] = Half life in CD-1 mouse plasma at 10 mg/kg, iv; type: ADME, organism-based

t1/2 [3]: 1 h | IC50 (cells): 2700 nM | AUC(0-inf) [9]: 3390 ng·h/mL | Vd [10]: 21.4 L/kg | Cmax [13]: 254 ng/mL | AUC [23]: 3110 ng·h/mL | Ki [24]: 1250 nM | F [26]: 60% | CL/F [27]: 98.3 mL/min/kg | Ki (D(1A) dopamine receptor): 1440 nM | half-life [35]: 4.7 h
Structure (SMILES): CCN(CC)CCCC(C)Nc1cnc(C(=O)Nc2ccc(Cl)c3cccnc23)cn1 (stereo not drawn)
Activity (HCT-116 [1]): 19% | Activity (MIA PaCa-2 [2]): 69% | Activity (HCT-116 [4]): 44% | Activity (MIA PaCa-2 [5]): Active | Activity (MIA PaCa-2 [6]): inactive | Activity (HCT-116 [7]): 22% | Activity (MIA PaCa-2 [8]): 35% | Activity (MIA PaCa-2 [11]): 3.16% | Activity (HCT-116 [12]): 33% | Activity (MIA PaCa-2 [14]): 16% | Activity (HCT-116 [15]): inactive | Activity (MIA PaCa-2 [16]): inactive | Activity (MIA PaCa-2 [17]): Active | Activity (HCT-116 [18]): 35% | Activity (PANC-1): Active | Activity (HCT-116 [19]): 2.87% | Activity (HCT-116 [20]): 18.39% | viability at 10 µM (HCT-116 [21]): 32.9% | Activity (HCT-116 [22]): 16.72% | Activity [25]: Non-Toxic | Activity (MIA PaCa-2 [28]): inactive | Activity (MIA PaCa-2 [29]): 13.89% | Activity (MIA PaCa-2 [30]): Active | Activity (HCT-116 [31]): 2.37% | Activity (HCT-116 [32]): 20% | inhibition (HCT-116 [33]): inactive | Activity (MIA PaCa-2 [34]): Active
